Experimental data as given in ChEMBL document CHEMBL5465560, “Selectivity Literature for EUbOPEN Chemogenomic Library” (2024).
One block for each molecule: values may come before it.

How the values were obtained:
[1] = molecular target: T1, Dual specificity mitogen-activated protein kinase kinase 5 (Homo sapiens) (UniProt Q13163); assay: Selectivity interaction (LanthaScreen Eu Kinase Binding Assay) EUB0001632a MAP2K5; settings: at 10 µM
T1 sequence (whole entry): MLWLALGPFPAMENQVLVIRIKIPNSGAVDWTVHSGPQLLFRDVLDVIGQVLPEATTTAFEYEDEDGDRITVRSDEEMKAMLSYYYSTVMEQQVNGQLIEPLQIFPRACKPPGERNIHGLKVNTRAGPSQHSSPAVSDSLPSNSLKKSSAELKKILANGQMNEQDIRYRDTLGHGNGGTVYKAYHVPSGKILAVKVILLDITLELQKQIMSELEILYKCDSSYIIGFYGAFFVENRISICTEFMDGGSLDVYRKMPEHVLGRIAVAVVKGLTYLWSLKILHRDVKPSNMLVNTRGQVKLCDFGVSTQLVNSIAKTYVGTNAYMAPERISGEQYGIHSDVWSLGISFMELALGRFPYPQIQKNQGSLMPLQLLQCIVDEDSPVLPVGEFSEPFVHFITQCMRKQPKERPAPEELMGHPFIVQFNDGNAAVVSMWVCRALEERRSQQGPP

[2] = molecular target: T2, Serine/threonine-protein kinase TBK1 (Homo sapiens) (UniProt Q9UHD2); assay: Selectivity interaction (KinomeScan (DiscoverX)) EUB0000607a TBK1; settings: at 10 µM
T2 sequence (whole entry): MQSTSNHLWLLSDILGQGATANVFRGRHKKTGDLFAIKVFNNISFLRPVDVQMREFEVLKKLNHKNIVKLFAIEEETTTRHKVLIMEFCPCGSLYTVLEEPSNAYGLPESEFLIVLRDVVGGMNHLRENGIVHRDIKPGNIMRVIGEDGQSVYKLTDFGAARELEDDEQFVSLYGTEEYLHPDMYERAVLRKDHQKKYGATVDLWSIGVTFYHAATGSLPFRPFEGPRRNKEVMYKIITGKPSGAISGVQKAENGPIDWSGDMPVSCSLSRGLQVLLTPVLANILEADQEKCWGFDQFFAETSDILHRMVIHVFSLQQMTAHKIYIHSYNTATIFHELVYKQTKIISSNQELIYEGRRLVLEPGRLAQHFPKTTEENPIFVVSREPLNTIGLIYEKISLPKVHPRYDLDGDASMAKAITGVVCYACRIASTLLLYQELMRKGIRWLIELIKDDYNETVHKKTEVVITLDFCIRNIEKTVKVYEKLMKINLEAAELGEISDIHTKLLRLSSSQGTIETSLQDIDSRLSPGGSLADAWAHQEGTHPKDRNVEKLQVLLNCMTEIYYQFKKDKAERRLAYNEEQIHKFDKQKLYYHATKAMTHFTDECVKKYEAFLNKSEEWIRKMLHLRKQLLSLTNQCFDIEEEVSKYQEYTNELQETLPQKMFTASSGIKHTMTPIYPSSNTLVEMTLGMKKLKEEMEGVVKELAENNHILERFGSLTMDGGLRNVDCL

[3] = molecular target: T3, Protein kinase C zeta type (Homo sapiens) (UniProt Q05513); assay: Selectivity interaction (SelectScreen profiling (Invitrogen)) EUB0000607a PRKCZ; settings: at 2 µM
T3 sequence (whole entry): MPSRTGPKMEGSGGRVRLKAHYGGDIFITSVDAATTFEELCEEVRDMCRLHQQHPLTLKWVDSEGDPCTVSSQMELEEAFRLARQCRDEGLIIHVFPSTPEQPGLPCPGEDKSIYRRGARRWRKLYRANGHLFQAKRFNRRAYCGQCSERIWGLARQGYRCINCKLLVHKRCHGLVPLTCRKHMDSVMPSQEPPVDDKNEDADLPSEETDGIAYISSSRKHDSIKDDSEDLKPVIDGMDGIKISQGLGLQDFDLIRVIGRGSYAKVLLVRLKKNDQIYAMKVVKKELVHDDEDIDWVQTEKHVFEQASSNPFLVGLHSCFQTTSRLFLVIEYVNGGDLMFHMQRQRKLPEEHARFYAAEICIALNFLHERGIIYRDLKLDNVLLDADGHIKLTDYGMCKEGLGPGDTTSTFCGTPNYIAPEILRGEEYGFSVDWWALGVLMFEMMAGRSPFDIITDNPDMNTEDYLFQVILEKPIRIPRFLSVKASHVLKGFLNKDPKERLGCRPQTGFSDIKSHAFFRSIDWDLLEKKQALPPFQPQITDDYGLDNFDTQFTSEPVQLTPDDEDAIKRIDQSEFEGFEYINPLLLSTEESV

[4] = molecular target: Tyrosine-protein kinase receptor UFO (Homo sapiens) (UniProt P30530); assay: Selectivity interaction (Upstate Kinase Profiler service (Millipore)) EUB0000056c AXL; settings: at 1 µM
[5] = molecular target: T2, Serine/threonine-protein kinase TBK1 (Homo sapiens); assay: Selectivity interaction (KinomeScan (DiscoverX)) EUB0000695a TBK1; settings: at 100 nM
[6] = molecular target: Mitogen-activated protein kinase 6 (Homo sapiens) (UniProt Q16659); assay: Selectivity interaction (KinomeScan (DiscoverX)) EUB0001049a MAPK6; settings: at 1 µM
[7] = molecular target: T4, 3-phosphoinositide-dependent protein kinase 1 (Homo sapiens) (UniProt O15530); assay: Selectivity interaction (KinomeScan (DiscoverX)) EUB0000618a PDPK1; settings: at 10 µM
T4 sequence (whole entry): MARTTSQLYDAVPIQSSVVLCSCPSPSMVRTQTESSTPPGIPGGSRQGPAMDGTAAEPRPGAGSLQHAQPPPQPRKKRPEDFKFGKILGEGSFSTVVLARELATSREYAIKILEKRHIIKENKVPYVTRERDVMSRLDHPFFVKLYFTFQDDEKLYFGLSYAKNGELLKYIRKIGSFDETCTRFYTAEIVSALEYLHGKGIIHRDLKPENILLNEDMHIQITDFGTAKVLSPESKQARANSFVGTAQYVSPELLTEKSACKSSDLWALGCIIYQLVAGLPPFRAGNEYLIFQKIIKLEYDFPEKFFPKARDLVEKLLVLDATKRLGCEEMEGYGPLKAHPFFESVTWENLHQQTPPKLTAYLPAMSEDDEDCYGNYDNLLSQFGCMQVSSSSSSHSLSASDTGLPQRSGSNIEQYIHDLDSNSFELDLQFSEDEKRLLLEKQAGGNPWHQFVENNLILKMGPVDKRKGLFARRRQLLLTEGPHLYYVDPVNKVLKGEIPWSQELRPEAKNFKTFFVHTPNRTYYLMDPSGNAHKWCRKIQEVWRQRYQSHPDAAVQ

Chain of Tyrosine-protein kinase receptor UFO (Homo sapiens) (P30530 whole entry): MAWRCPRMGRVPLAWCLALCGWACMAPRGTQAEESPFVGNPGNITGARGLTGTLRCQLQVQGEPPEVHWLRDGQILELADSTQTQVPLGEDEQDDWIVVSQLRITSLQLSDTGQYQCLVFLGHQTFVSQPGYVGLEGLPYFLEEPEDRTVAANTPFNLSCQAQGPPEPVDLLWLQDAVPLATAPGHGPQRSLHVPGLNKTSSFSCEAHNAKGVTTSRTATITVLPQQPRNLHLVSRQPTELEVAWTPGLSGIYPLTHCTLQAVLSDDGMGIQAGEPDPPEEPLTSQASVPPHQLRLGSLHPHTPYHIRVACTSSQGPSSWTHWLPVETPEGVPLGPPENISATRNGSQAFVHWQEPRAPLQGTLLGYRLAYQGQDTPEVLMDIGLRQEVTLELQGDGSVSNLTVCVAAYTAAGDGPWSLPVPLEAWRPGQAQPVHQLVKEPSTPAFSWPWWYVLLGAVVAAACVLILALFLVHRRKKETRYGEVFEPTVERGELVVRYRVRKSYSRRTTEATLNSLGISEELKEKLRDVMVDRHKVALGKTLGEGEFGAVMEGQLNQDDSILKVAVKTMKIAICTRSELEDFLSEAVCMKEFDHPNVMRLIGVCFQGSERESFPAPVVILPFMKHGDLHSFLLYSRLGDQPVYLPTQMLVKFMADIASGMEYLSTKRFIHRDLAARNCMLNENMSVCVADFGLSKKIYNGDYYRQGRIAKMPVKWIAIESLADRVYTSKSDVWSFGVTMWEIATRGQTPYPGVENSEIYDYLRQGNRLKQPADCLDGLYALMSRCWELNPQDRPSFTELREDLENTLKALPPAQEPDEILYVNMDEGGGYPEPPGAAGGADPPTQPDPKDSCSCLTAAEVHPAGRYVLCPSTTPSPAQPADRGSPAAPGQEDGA
Chain of Mitogen-activated protein kinase 6 (Homo sapiens) (Q16659 whole entry): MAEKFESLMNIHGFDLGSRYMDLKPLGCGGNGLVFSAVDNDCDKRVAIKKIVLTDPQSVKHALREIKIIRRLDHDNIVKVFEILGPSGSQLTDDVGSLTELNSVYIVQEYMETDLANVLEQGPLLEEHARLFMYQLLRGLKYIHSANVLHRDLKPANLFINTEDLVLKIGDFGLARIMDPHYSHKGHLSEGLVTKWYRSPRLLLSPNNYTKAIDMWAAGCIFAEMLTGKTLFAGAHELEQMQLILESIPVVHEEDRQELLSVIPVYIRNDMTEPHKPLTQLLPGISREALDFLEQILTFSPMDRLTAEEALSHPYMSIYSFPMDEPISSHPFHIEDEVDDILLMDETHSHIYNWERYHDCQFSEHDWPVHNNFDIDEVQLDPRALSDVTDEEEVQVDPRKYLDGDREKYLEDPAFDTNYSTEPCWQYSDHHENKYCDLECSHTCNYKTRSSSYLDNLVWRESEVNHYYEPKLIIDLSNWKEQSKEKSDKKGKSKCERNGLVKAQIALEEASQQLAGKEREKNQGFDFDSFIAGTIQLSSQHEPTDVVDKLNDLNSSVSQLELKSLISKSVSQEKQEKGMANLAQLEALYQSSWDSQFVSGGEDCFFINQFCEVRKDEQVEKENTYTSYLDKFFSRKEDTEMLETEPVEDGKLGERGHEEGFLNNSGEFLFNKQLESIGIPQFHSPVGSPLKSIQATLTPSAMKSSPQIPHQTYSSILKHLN

% of inhibition [1]: 0.023%
SMILES: Cn1cc(-n2cnc3c(NCc4nc5cc(Cl)c(Cl)cc5[nH]4)nc(N4CCOCC4)nc32)cn1

SMILES: CNC(=O)Nc1ccc(-c2nc(N3CC4CCC(C3)O4)c3cnn(C4CCC5(CC4)OCCO5)c3n2)cc1
% of control [2]: 82% | % of inhibition [3]: 8%

% of inhibition [4]: 58%
SMILES: Cc1ccc(-c2ccc3c(ccc4sc5c(c43)NC[C@@H](C)NC5=O)n2)cn1

SMILES: Cc1cc(F)c(C(=O)Nc2cccc(-c3nncn3C(C)C)n2)cc1-n1cnc(C2CC2)c1
% of control [5]: 90%

SMILES: COc1cc(Nc2nc(C)cc(-c3cnn4nc(OC)ccc34)n2)cc(C(F)(F)F)c1
% of control [6]: 92%

SMILES: O[C@H]1CC[C@H](Nc2ncc3nc(Nc4c(F)cc(F)cc4F)n([C@H]4CCOC4)c3n2)CC1
% of control [7]: 100%
